One data set has as its system MCF7. Put plainly: CellTiter-Glo cell proliferation inhibition, MCF7. It counts as cell-based. As to conditions: Homo sapiens; MCF7 (breast cancer cell line), 72 hours; read-out: Example IC50 (µM) MCF7. From the text: (§1) This experiment used the CellTiter-Glo® Luminescent Cell Viability Assay kit from Promega to evaluate the inhibitory activity of the disclosed compounds on the proliferation of the following cell lines: 4T1 (mouse breast cancer cell line), A20 (mouse B-cell lymphoma cell line), A2780 (human ovarian cancer cell line), AsPC-1 (pancreatic cancer cell line), B16F10 (mouse melanoma cell line), BT549 (human breast cancer cell line), CT26 (mouse colon cancer cell line), EMT6 (mouse breast cancer cell line), HCT116 (colorectal cancer cell line), Jurket (acute leukemia cell line), KP-4 (pancreatic cancer cell line), LL/2 (mouse lung cancer cell line), MCF7 (breast cancer cell line), […] NCI-H358 (lung cancer cell line), NCI-H727 (gastric cancer cell line), NCI-1944 (lung cancer cell line), Pan 04.03 (pancreatic cancer cell line), SK-BR-3 (breast cancer cell line), THP-1 (leukemia cell line), TOV21G (ovarian cancer cell line), U87MG (glioblastoma cell line), and UM-UC-a (bladder cancer cell line). […]
(§2) Cells were cultured according to the instructions provided by the cell supplier (Nanjing Kebai Biotechnology Co., Ltd.). […] Suspension or adherent cells were collected, and cell viability was determined using the trypan blue exclusion method, ensuring that cell viability was above 90%. […]
(Cellular ATP, detected with luciferase, serves as a proxy for viable cell number.)

In the next data set the test system is LL/2. The data set is described as follows: CellTiter-Glo cell proliferation inhibition, LL/2. It counts as cell-based. As to conditions: LL/2 (mouse lung cancer cell line), 72 hours; read-out: Example IC50 (µM) LL/2.
Source text: as §1, §2

The test system of another data set is MKN45. Put plainly: CellTiter-Glo cell proliferation inhibition, MKN45. Particulars: MKN-45; MKN45 (mouse B-cell lymphoma cell line), 72 hours; read-out: Example IC50 (µM) MKN45. Type of data set: cell-based.
Source text: as §1, §2

The subject of another data set is U87MG. The data set is described as follows: CellTiter-Glo cell proliferation inhibition, U87MG. It counts as cell-based. Particulars: Homo sapiens, U-87 MG; U87MG (glioblastoma cell line), 72 hours; read-out: Example IC50 (µM) U87MG.
Source text: as §1, §2

For the next data set, the system named is Jurket. The data set is described as follows: CellTiter-Glo cell proliferation inhibition, Jurket. It counts as cell-based. Particulars: Jurket (acute leukemia cell line), 72 hours; read-out: Example IC50 (µM) Jurket.
Source text: as §1, §2

In the next data set the test system is UM-UC-a. Put plainly: CellTiter-Glo cell proliferation inhibition, UM-UC-a. Type of data set: cell-based. As to conditions: UM-UC-a (bladder cancer cell line), 72 hours; read-out: Example IC50 (µM) UM-UC-a.
Source text: as §1, §2

For another data set, the system named is 4T1. Put plainly: CellTiter-Glo cell proliferation inhibition, 4T1. It counts as cell-based. Particulars: 4T1 (mouse breast cancer cell line), 72 hours; read-out: Example IC50 (µM) 4T1.
Source text: as §1, §2

In another data set the test system is CT26. The data set is described as follows: CellTiter-Glo cell proliferation inhibition, CT26. It counts as cell-based. As to conditions: CT26 (mouse colon cancer cell line), 72 hours; read-out: Example IC50 (µM) CT26.
Source text: as §1, §2

For a further data set, the system named is KP-4. Put plainly: CellTiter-Glo cell proliferation inhibition, KP-4. It counts as cell-based. As to conditions: Homo sapiens; KP-4 (pancreatic cancer cell line), 72 hours; read-out: Example IC50 (µM) KP-4.
Source text: as §1, §2

The subject of the next data set is BT549. The data set is described as follows: CellTiter-Glo cell proliferation inhibition, BT549. Particulars: BT-549; BT549 (human breast cancer cell line), 72 hours; read-out: Example IC50 (µM) BT549. It counts as cell-based.
Source text: as §1, §2

In a further data set the test system is TOV21G. Put plainly: CellTiter-Glo cell proliferation inhibition, TOV21G. Type of data set: cell-based. Particulars: Homo sapiens; TOV21G (ovarian cancer cell line), 72 hours; read-out: Example IC50 (µM) TOV21G.
Source text: as §1, §2

A further data set has as its system B16F10. The data set is described as follows: CellTiter-Glo cell proliferation inhibition, B16F10. It counts as cell-based. As to conditions: B16-F10; B16F10 (mouse melanoma cell line), 72 hours; read-out: Example IC50 (µM) B16F10.
Source text: as §1, §2

The conditions of data set [1]: J. Med. Chem. 2014, 57, 6594-6609; read-out: cellular activity IC50; cited from earlier work.
A further data set concerns the target SHP2 (Homo sapiens, UniProt Q06124). As to conditions: J. Med. Chem. 2014, 57, 6594-6609; read-out: enzyme activity IC50; cited from earlier work.
For data set [2] the following is noted: J. Med. Chem. 2014, 57, 6594-6609; cited from earlier work.

Chain of SHP2 (Q06124 whole entry): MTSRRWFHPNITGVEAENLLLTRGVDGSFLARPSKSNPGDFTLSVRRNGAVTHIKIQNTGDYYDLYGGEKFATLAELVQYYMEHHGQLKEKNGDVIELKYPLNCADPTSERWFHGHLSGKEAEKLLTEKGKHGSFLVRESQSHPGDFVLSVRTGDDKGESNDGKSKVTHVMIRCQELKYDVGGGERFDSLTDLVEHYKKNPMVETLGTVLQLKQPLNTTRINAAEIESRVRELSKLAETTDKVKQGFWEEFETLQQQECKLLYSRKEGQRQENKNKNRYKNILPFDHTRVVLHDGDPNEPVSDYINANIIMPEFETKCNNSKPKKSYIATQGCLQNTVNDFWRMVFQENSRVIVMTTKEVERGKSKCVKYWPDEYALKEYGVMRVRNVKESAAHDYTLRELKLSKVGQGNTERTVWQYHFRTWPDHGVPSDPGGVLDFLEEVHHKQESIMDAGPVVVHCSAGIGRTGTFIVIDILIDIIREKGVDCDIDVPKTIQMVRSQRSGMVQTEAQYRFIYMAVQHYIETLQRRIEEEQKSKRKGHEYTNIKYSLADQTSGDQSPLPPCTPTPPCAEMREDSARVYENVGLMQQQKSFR

Regarding `O=C(Nc1ccc(-c2csc(CO)c2)cc1)C(=O)Nc1ccc(-c2cc3cc(F)c(-c4nnn[nH]4)cc3n2C2CCC2)cc1` [Example 1], the IC50 was found to be 0.083 µM in the data set on MCF7; 0.207 µM with LL/2; 0.326 µM in the data set with MKN45; 0.276 µM with U87MG; 0.165 µM in the data set with Jurket; 0.193 µM with UM-UC-a. The IC50 was 0.125 µM in the data set on 4T1; 0.123 µM with CT26; 0.228 µM in the data set on KP-4; 0.121 µM with BT549; 0.112 µM with TOV21G; 0.142 µM in the data set with B16F10.
As to `Cn1c(-c2cccc(NC(=O)C(=O)Nc3ccc(-c4ccsc4)cc3)c2)c(I)c2cc(C(=O)O)c(O)cc21` [Example 11a-1, reference compound], the IC50 in data set [1] is at least 1000 nM; on SHP2, about 200 nM. Also, the oral bioavailability in data set [2] is 0.07%.
As to `O=C(Nc1ccc(-c2cc3cc(F)c(-c4nnn[nH]4)cc3n2C2CCC2)cc1)C(=O)Nc1ccc(N2CCC3(CCC(O)C3)CC2)cc1` (stereo not drawn) [Example 100], the IC50 with MCF7 was found to be 0.05 µM; with U87MG, 0.075 µM; in the data set on 4T1, 0.14 µM; with CT26 it was 0.134 µM; with BT549, 0.047 µM; with TOV21G it was 0.106 µM.

Source of the values: patent publication EP4741383A1, “COMPOUND AND USE THEREOF AS ANTI-CANCER DRUG” (Tyligand Bioscience (Shanghai) Limited, priority 2023, dated 2025).
